Laboratory results published in article PMC8894198, “Biosynthetic Microcin J25 Exerts Strong Antibacterial, Anti-Inflammatory Activities, Low Cytotoxicity Without Increasing Drug-Resistance to Bacteria Target” (Frontiers in Immunology, 2022).
≈ marks a conversion by molar mass, not a printed value. Where a SMILES comes first, the peptide text is derived from it. Bridges are numbered along the chain shown (N, C = ends).

Assays:
[1] = system: E. coli K88 on IPEC-1 cells; assay: Protection against E. coli K88 adhesion and colonization of IPEC-1 cells; type: cell-based; details: 1, 2, 4, 8 × MIC for 3 h, then E. coli K88 for 2 h; plate counts; 6 biological replicates
Procedure: Capacity of against E. coli K88 adhesion and colonization of IPEC-1 cells was evaluated. IPEC-1 cells were cultured with or without MccJ25 for 3 h in the absence or presence of E. coli K88 for 2 h. The E. coli K88 adhesion and colonization in the IPEC-1 cells was determined. E. coli K88 (mean CFU/ml ± SEMs) were determined by plate counts, and determined from three individual experiments.
Figure S1. MccJ25 enhances intestinal epithelial cell to against E. coli K88 infection. […] IPEC-1 cells were cultured in the presence or absence of 1, 2, 4, 8 × MIC of MccJ25 for 3 h, then cells were treated with E. coli K88 for 2 h. The numbers of E. coli K88 were counted. E. coli K88 (mean CFU/ml ± SEMs) were determined by plate counts from 6 biological replicates. **P ≤ 0.01, ***P ≤ 0.001.

RAW 264.7 cells = assay: LPS-induced inflammation in macrophages; type: cell-based, mouse
Procedure: The mouse macrophage cell line RAW 264.7 was obtained in our lab and stored in liquid nitrogen. Cells were cultured in DMEM supplemented with 1% antibiotics (100 U/mL penicillin and 100 µg/mL streptomycin) with 20% FBS at 37°C and 5% CO2. Cells were transferred and inoculated in 12-well plates (1 × 10^4 cells/well) and cultured for 24 h.
RAW 264.7 cells (approximately 2 × 10^4 cells/well) were cultured with 1 µg/mL E. coli LPS for 3 h at 37°C in the absence (control) or presence of 1 μg/mL MccJ25 at 5% CO2. The cells and cell culture supernatants were then collected. Culture supernatant mixed with Griess reagent (1:1) and incubated for 15 min at room temperature. A microplate reader was used to measure […] (NO) at 540 nm. The changes in induced NO levels were clarified based on the comparison between the values of the treated and control groups. Each experiment was repeated three times.
The concentrations of tumor necrosis factor-α (TNF-α), interleukin-6 (IL-6), IL-4, interferon (IFN)-γ, and nitric oxide (NO) in serum were measured. In addition, TNF-α and NO levels were also measured in the supernatant of RAW264.7 cells. ELISA was performed using a commercial ELISA kit (eBioscience, San Diego, USA). LPS levels in plasma were analyzed using the QCL-1000 kit (Xiamen, China) based on the manufacturer’s standards. On the day of sacrifice, eyes were extracted with ethylenediaminetetraacetic acid (EDTA), and blood was collected into clean test tubes. Peripheral hemograms and white blood cells (WBCs) were analyzed using a Coulter LH755 hematology analyzer. The levels of serum D-lactate were measured using ELISA kit (Jiancheng, Nanjing, China) according to the manufacturer’s protocols.
The extent and mRNA expression levels of TNF-α, IL-6, IL-10, IL-1β, IFN-γ, and TLR4, and NF-κB in each body part of the jejunum, ileum, colon, and spleen and in RAW264.7 cells were clarified by RT–PCR as previously described ([31]). Primers for TNF-α, IL-6, IL-10, IL-1β, IFN-γ, TLR4, and NF-κB are described in Table S1 . […] Combined with gel electrophoresis and a NanoDrop 2000 spectrophotometer (Thermo Fisher Scientific, Wilmington, DE), the quality and quantity of total RNA were determined. […]
Frozen tissue samples and fresh cells were homogenized in RIPA lysis buffer containing protease inhibitors (Applygen, Beijing, China). Protein levels were determined using a BCA protein assay kit (Thermo Fisher Scientific, Rockford, IL). […] Chemofluorescence was detected using the ImageQuant LAS 4000 mini system (GE Healthcare Biosciences AB, Inc., Sweden) with Western Blot Luminance Reagent (Applygen, Beijing, China), and the membranes were cleaned with an ImageQuant TL (GE Healthcare Life Science) gel imaging system for quantification.

E. coli K88 = type: cell-based; details: sub-MIC levels, 25-d passage period; six biological replicates
Procedure: To quantify the production status of the bacteria, the bacterial density was measured after incubating for 24 h. Cultures with the second highest concentration allowed to grow (OD600 ≥ 2) were diluted 1:100 with MccJ25 MHB at different concentrations than those described above. Cultures that grew above the indicated MIC levels were plated on LB agar plates, and their MIC levels were determined by the broth macrodilution method.

E. coli LKFZ GL2 = assay: MIC/MBC, clinical isolate; type: cell-based; details: source pig stool
Procedure: The minimum inhibitory concentration (MIC) refers to the lowest concentration that can produce a significant hindrance to bacterial growth in a drug sensitivity test by adopting a broth dilution, with certain refinements and modifications based on the previous description ([25], [26]). In short, MccJ25 was dissolved in sterilized distilled water (SDW), serial 2-fold dilutions were prepared in Mueller-Hinton broth (MHB) through a 96-well microtiter plate, and the final concentration of MccJ25 was maintained in the range of 0.003125 to 256 μg/mL. Then, 2 μL of standard and clinically relevant overnight broth cultures of bacteria were inoculated into each well at a concentration of 5 × 10^6 CFU/mL. Microtiter plates were incubated at 37°C for one full day. Two groups were set up: positive (medium with inoculum) and negative (medium only) controls. The minimum bactericidal concentration (MBC) was measured in LB medium and refers to the first drug dilution value at which the initial bacterial concentration was reduced by 99.99%. The final analysis was determined by the results of three replicated and independent experiments. To further assess and clarify the antimicrobial activity of MccJ25, the protective ability against E. coli adhesion, live/dead assay, and killing curve were performed, the detailed methods were provided in Supplementary Materials .

CC[C@H](C)[C@H](NC(=O)CNC(=O)[C@@H](NC(=O)[C@H](Cc1ccccc1)NC(=O)[C@H](Cc1ccc(O)cc1)NC(=O)[C@@H]1CCC(=O)NCC(=O)NCC(=O)N[C@@H](C)C(=O)NCC(=O)N[C@@H](Cc2c[nH]cn2)C(=O)N[C@@H](C(C)C)C(=O)N2CCC[C@H]2C(=O)N1)C(C)C)C(=O)NCC(=O)N[C@H](C(=O)N1CCC[C@H]1C(=O)N[C@H](C(=O)N[C@@H](CO)C(=O)N[C@@H](Cc1ccccc1)C(=O)N[C@@H](Cc1ccc(O)cc1)C(=O)NCC(=O)O)[C@@H](C)CC)[C@@H](C)O [MccJ25, microcin J25] (GGAGHVPEYFVGIGTPISFYG-OH; lactam N-8 (inferred); C-terminus assumed)
E. coli K88 adhesion and colonization [1]: significantly protects
LPS-stimulated expression of TNF-α and TLR-4 (RT-PCR) (RAW 264.7 cells; LPS 1 µg/mL, MccJ25 1 µg/mL): this stimulatory effect was inhibited
LPS-induced TNF-α and NO secretion (RAW 264.7 cells; LPS 1 µg/mL, MccJ25 1 µg/mL, 3 h): this increase in secretion was alleviated
MyD88, TLR4, TNF-α and IL-6 protein expression (RAW 264.7 cells; western blot, after LPS challenge): sharply decreased
p-NF-κB and MyD88 protein expression (RAW 264.7 cells; western blot, after LPS challenge for 3 h): significantly decreased
resistant mutants during serial passage (E. coli K88): No resistant mutants were detected
MBC (E. coli LKFZ GL2; LB medium, 99.99% reduction, three independent experiments): 0.500 µg/mL (≈ 0.237 µM)
MIC (E. coli LKFZ GL2; broth dilution in MHB, 37°C, three independent experiments): 0.250 µg/mL (≈ 0.119 µM)
MIC/MBC (E. coli LKFZ GL2; ratio): 0.500
